{"source": "patent US8530463B2", "about": "“Multimodal particulate formulations” (Hale Biopharma Ventures LLC, priority 2007, dated 2013)", "origin": "cited, not measured here", "data": [{"smiles": "Cc1ncc2n1-c1ccc(Cl)cc1C(c1ccccc1F)=NC2", "note": "[Midazolam, 8-chloro-6-(2-fluorophenyl)-1-methyl-4H-imidazo[1,5-a]benzodiazepine]", "values": [{"measurement": "solubility in most aqueous solutions", "setting": "neutral pH (e.g. about 6 to 8)", "value": "relatively insoluble"}, {"measurement": "solubility in water", "setting": "pH lower than about 4", "value": "soluble"}]}]}
